Where two headings read alike, the source gives them in different places.
Tests used:
Swiss-Webster male mice [1] = assay: Mouse Activity and Screen Test (MAST): screen test failure; assay type: in vivo; conditions: 1 hour prior to testing
Description: Nine unfasted Swiss-Webster male mice weighing 20-30 g are equally divided into three groups for each drug dose to be tested. That is, data for each dose level was generated by three separate groups of three mice each. A minimum of three dose levels (10, 30, and 100 mg/kg) are tested for each drug. Treatments are administered intraperitoneally one hour prior to testing. All dosages are calculated as parent compound and given in volumes of 10 ml/kg. Compounds are dissolved or suspended in 0.2% Methocel. Control animals are injected with Methocel. Testing: A two part testing procedure is started one hour postinjection. First, the screen test (ST) is performed (see Pharmac. Biochem. Behav. 6, 351-353, 1977). Briefly this test consists of placing mice on individual wire screens which are then rotated 180 degrees at the start of a 60 second observation period. The number of mice falling off the inverted screen is recorded. Data: The data obtained from the screen test are expressed as percent of mice falling off the screen. Data derived from locomotor activity of drug treated mice are compared to the activity of vehicle treated animals and are expressed as percent inhibition of spontaneous locomotion. All percentages reported for inhibition of locomotion (LI) are based upon data accumulated for one hour. Both phases of testing are graded: A=60-100%; C=31-59%; and N=0-30%. An overall dose rating is obtained by the following criteria: […]

adenosine A2 receptor = target: T1, adenosine A2 receptor (Rattus norvegicus, UniProt P30543); assay: Adenosine A2 receptor binding (RBA-2), displacement of [3H]NECA
T1 construct: Brains were thawed and then kept on ice while the striata were dissected out; tissue Pel-Freez (Rogers, Ark.); host or cells: rat striatum (Sprague-Dawley brains; Long-Evans gave essentially identical results)
T1 sequence (P30543 whole entry): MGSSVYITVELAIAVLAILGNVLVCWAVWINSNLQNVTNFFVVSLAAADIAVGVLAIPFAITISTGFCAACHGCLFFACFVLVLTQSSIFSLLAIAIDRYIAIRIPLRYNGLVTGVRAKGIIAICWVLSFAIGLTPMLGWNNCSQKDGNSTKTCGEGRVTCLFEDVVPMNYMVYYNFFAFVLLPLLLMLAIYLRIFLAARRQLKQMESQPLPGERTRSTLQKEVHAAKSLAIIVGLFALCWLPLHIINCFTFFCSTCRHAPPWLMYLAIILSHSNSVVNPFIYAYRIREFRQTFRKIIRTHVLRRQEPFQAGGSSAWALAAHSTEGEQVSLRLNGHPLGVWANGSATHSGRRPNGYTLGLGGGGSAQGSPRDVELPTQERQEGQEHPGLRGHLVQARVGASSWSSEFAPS
Description: Brains from 200-500 g mixed sex Sprague-Dawley rats were purchased from Pel-Freez (Rogers, Ark.). […] Brains were thawed and then kept on ice while the striata were dissected out. […] The suspension was centrifuged at 50,000 xg for ten minutes, the supernatant discarded, the pellet resuspended in 10 vol ice-cold Tris as above, recentrifuged, resuspended at 1 g/5 ml, and stored in plastic vials at -70° C. […] When needed, tissue was thawed at room temperature, disrupted in a Polytron, and kept on ice until used.
All incubations were for 60 minutes at 25° C. in 12×75 mm glass tubes containing 1 ml Tris with 5 mg original tissue weight of rat weight of rat striatal membranes, 4 nM [^3 H]-N-ethyl adenosine-5'-carboxamide ([^3 H]NECA), 50 nM N^6 -cyclopentyladenosine (to eliminate A1 receptor binding), 10 mM MgCl2, 0.1 units/ml of adenosine deaminase and 1% dimethylsulfoxide. N^6 -Cyclopentyladenosine was dissolved at 10 mM in 0.02N HCl and diluted in Tris. […] Test compounds were dissolved at 10 mM in dimethylsulfoxide on the same day as the experiment, and diluted in dimethylsulfoxide to 100× the final incubation concentration. […] [^3 H]NECA was diluted to 40 nM in Tris. The membrane suspension (5 mg/0.79 ml) contained sufficient MgCl2 and adenosine deaminase to give 10 mM and 0.1 units/ml, respectively, final concentration in the incubation. […] After all additions, the rack of tubes was vortexed, and the tubes were then incubated for 60 min at 25° C. in a shaking water bath. The rack of tubes was vortexed an additional time halfway through the incubation.
Incubations were terminated by filtration through 2.4 cm GF/B filters under reduced pressure. Each tube was filtered as follows: the contents of the tube were poured onto the filter, 4 ml of ice-cold Tris were added to the tube and the contents poured onto the filter, and the filter was washed twice with 4 ml of ice-cold Tris. The filtration was complete in about twelve seconds.
Nonspecific binding was defined as binding in the presence of 100 μM N^6 -cyclopentyladenosine, and specific binding was defined as total binding minus nonspecific binding. The IC50 was calculated by weighted nonlinear least squares curve-fitting to the mass-action equation. [formula] where Y is cpm bound
T is cpm total binding without drug
S is cpm specific binding without drug
D is the concentration of drug and
K is the IC50 of the drug
Weighting factors were calculated under the assumption that the standard deviation was proportional to the predicted value of Y. Nonspecific binding was treated as a very large (infinite) concentration of drug in the computer analysis.

adenosine A1 receptor = target: T2, adenosine A1 receptor (Rattus norvegicus, UniProt P25099); assay: Adenosine A1 receptor binding (RBA-1), displacement of [3H]-CHA
T2 construct: Whole brain minus cerebellum and brainstem from male Long Evans rats (150-200 g) was homogenized; from tissue; host or cells: rat whole brain minus cerebellum and brainstem, male Long Evans
T2 sequence (P25099 1-326): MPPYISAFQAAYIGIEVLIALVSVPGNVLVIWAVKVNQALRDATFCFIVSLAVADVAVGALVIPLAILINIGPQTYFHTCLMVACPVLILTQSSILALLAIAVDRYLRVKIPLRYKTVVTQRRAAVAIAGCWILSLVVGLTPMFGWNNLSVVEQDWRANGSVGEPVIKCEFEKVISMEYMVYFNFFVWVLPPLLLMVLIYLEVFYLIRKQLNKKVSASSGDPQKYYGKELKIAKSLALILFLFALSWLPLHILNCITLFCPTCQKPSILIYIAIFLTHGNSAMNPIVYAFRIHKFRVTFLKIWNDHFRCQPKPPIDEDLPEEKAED
Description: Whole brain minus cerebellum and brainstem from male Long Evans rats (150-200 g) was homogenized in 30 volumes of ice-cold 0.05M Tris-HCl buffer pH 7.7 using a Brinkman Polytron PT-10, (setting number 6 for 20 seconds) and centrifuged for ten minutes at 20,000×g (Sorvall RC-2), 4° C. The supernatant was discarded, and the pellet was resuspended and centrifuged as before. The pellet was resuspended in 20 ml Tris-HCl buffer containing two International Units/ml of adenosine deaminase (Sigma type III from calf intestinal mucosa), incubated at 37° C. for 30 minutes, then subsequently at 0° C. for ten minutes. The homogenate was again centrifuged, and the final pellet was resuspended in ice-cold 0.05M Tris-HCl buffer pH 7.7 to a concentration of 20 mg/ml original wet tissue weight and used immediately.
Tissue homogenate (10 mg/ml) was incubated in 0.05M Tris-HCl buffer pH 7.7 containing 1.0 nM [^3 H]-N^6 -cyclohexyladenosine [^3 H]-CHA) with or without test agents in triplicate for one hour at 25° C. Incubation volume was 2 ml. Unbound [^3 H]-CHA was separated by rapid filtration under reduced pressure through Whatman glass fiber (GF/B) filters. The filters were rinsed three times with 5 ml of ice cold 0.05M Tris-HCl buffer pH 7.7. The radio-labeled ligand retained on the filter was measured by liquid scintillation spectrophotometry after shaking the filters for one hour or longer on a mechanical shaker in 10 ml of Beckman Ready-Solv HP scintillation cocktail.
Nonspecific binding was defined as the binding which occurred in the presence of 1 mM theophylline. […] The Scatchard plot was calculated by linear regression of the line obtained by plotting the amount of radioligand bound (pmoles/gram of tissue) versus [formula] Since the amount of radioligand bound was a small fraction of the total amount added, free radioligand was defined as the concentration (nM) of radioligand added to the incubation mixture. The Hill coefficient was calculated by linear regression of the line obtained by plotting the log of the bound radioligand vs the log of the [formula] The maximal number of binding sites (Bmax) was calculated from the Scatchard plot.

Swiss-Webster male mice [2] = assay: Mouse Activity and Screen Test (MAST): inhibition of spontaneous locomotor activity; assay type: in vivo; conditions: 1 hour prior to testing
Description: Nine unfasted Swiss-Webster male mice weighing 20-30 g are equally divided into three groups for each drug dose to be tested. That is, data for each dose level was generated by three separate groups of three mice each. A minimum of three dose levels (10, 30, and 100 mg/kg) are tested for each drug. Treatments are administered intraperitoneally one hour prior to testing. All dosages are calculated as parent compound and given in volumes of 10 ml/kg. Compounds are dissolved or suspended in 0.2% Methocel. Control animals are injected with Methocel. Immediately following the screen test, the final phase of testing is initiated by placing each group of three mice in one actophotometer (Life Sciences, 22, 1067-1076, 1978). The actophotometer consists of a cylindrical chamber whose center is occupied by another cylinder which contains the illumination for six photocells located on the perimeter of the chamber. Six light-beam interruptions equal one count. Locomotor activity is recorded by computer at ten minute intervals for 60 minutes. Data: The data obtained from the screen test are expressed as percent of mice falling off the screen. Data derived from locomotor activity of drug treated mice are compared to the activity of vehicle treated animals and are expressed as percent inhibition of spontaneous locomotion. All percentages reported for inhibition of locomotion (LI) are based upon data accumulated for one hour. Both phases of testing are graded: A=60-100%; C=31-59%; and N=0-30%. An overall dose rating is obtained by the following criteria: […]

[3] = 1.0 nM [3H]-CHA, rat whole brain minus cerebellum and brainstem, read-out: RBA-1 (IC50, adenosine A1 receptor affinity)

Row | IC50 (adenosine A2 receptor; 4 nM [3H]NECA, 50 nM N6-cyclopentyladenosine, rat striatal membranes, read-out: RBA-2 (IC50, adenosine A2 receptor affinity)) [µM] | IC50 (adenosine A1 receptor; [3]) [µM] | inhibition at 100 µM (adenosine A2 receptor; at 1 × 10^-4 M, read-out: RBA-2 Inhib) [%] | Structure (SMILES) | Screen Test Failure (Swiss-Webster male mice [1]; 10 mg/kg i.p.) [%] | Screen Test Failure (Swiss-Webster male mice [1]; 30 mg/kg i.p.) [%] | Screen Test Failure (Swiss-Webster male mice [1]; 100 mg/kg i.p.) [%] | IC50 (adenosine A2 receptor) [µM] | IC50 (adenosine A1 receptor) [µM] | Inhibition of Mouse Locomotor Activity (Swiss-Webster male mice [2]; 10 mg/kg i.p.) [%] | Inhibition of Mouse Locomotor Activity (Swiss-Webster male mice [2]; 30 mg/kg i.p.) [%] | Inhibition of Mouse Locomotor Activity (Swiss-Webster male mice [2]; 100 mg/kg i.p.) [%] | Screen Test Failure (Swiss-Webster male mice [1]; 3.0 mg/kg i.p.) [%] | Inhibition of Mouse Locomotor Activity (Swiss-Webster male mice [2]; 3.0 mg/kg i.p.) [%]
1 | – | – | – | OC[C@H](O)CNc1ncnc2c1ncn2[C@@H]1O[C@H](CO)[C@@H](O)[C@H]1O [Example 2, (R)-N^6-[2,3-Dihydroxypropyl]adenosine] | 100 | 100 | 100 | 11 | 0.0078 | 100 | 100 | 100 | – | –
2 | 20 | 0.94 | – | CC1(C)OC[C@H](CNc2ncnc3c2ncn3[C@@H]2O[C@H](CO)[C@@H](O)[C@H]2O)O1 [Example 6, (S)-N^6-[2,3-Dihydroxypropylisopropylidene]adenosine] | 0 | 0 | – | – | – | 47 | 71 | – | 0 | 26
3 | – | 8.8 | 23 | C[C@H]1O[C@@H](n2cnc3c(NCC4COC(C)(C)O4)ncnc32)[C@H](O)[C@@H]1O (stereo partly drawn) [Example 7, (R,S)-N^6-[2,3-Dihydroxypropyl-isopropylidine]-5'-deoxyadenosine] | 0 | 0 | – | – | – | 18 | 69 | – | 11 | 13
4 | – | – | – | CC(C)CC(=O)OCC(CNc1ncnc2c1ncn2[C@@H]1O[C@H](COC(=O)CC(C)C)[C@@H](OC(=O)CC(C)C)[C@H]1OC(=O)CC(C)C)OC(=O)CC(C)C (stereo partly drawn) [Example 11, N-6[2,3-Dihydroxypropyl-2,3-di-O-isovaleroyl]-2',3',5'-tri-O-isovaleroyl adenosine] | 55 | 100 | – | – | – | 91 | 79 | – | 22 | 59

Source: US4616003A, “N^6 -dihydroxypropyladenosines” (Warner-Lambert Company, priority 1985, dated 1986)
